From patent US7973061B2, “Anaplastic lymphoma kinase modulators and methods of use” (Exelixis, Inc., priority 2004, dated 2011)

What follows are compounds tested against T1, ALK (baculovirus expressed human ALK kinase domain F1098-K1410) (Homo sapiens, UniProt Q9UM73) (assay: biochemical). Details: 1 μM ATP, 4 μM poly-AEKY, 12 nM ALK, 2 hours at ambient temperature; read-out: ALK IC50.
T1 construct: human ALK kinase domain F1098-K1410; made in house
Method in brief: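 Inhibitors were tested at 10 concentrations, and IC50 was derived from a sigmoidal fit (Min, Max, Hill slope). Kinase activity was measured as percent ATP left after a 2 h reaction at room temperature, detected by luciferase-luciferin chemiluminescence. The ATP level was set close to KM for the ALK kinase domain F1098-K1410.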

T1 sequence (Q9UM73 1098-1410): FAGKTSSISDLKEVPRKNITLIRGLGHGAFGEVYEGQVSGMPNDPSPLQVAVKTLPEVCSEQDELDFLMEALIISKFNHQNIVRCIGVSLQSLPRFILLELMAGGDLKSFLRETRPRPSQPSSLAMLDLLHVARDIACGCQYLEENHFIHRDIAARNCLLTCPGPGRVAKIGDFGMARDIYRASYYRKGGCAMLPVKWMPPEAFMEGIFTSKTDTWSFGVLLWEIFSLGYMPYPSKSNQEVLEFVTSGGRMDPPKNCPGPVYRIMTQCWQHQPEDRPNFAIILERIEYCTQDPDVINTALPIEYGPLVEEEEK

| Structure (SMILES) | IC50 [µM] |
| --- | --- |
| COc1ccc(CCNC(=O)c2coc(CNC(=O)COc3ccc(OC(F)(F)F)cc3)n2)cc1OC [Entry 155, N-{2-[3,4-bis(methyloxy)phenyl]ethyl}-2-({[({4-[(trifluoromethyl)oxy]phenyl}oxy)acetyl]amino}methyl)-1,3-oxazole-4-carboxamide] | 0.05 to 0.5 |
| O=C(COc1ccc(OC(F)(F)F)cc1)NCc1nc(C(=O)NCc2cccc(C(F)(F)F)c2)cs1 [Entry 156, 2-({[({4-[(trifluoromethyl)oxy]phenyl}oxy)acetyl]amino}methyl)-N-{[3-(trifluoromethyl)phenyl]methyl}-1,3-thiazole-4-carboxamide] | 0.05 to 0.5 |
| O=C(COc1ccc(OC(F)(F)F)cc1)NCc1nc(C(=O)NCc2cccc(I)c2)cs1 [Entry 157, N-[(3-iodophenyl)methyl]-2-({[({4-[(trifluoromethyl)oxy]phenyl}oxy)acetyl]amino}methyl)-1,3-thiazole-4-carboxamide] | 0.05 to 0.5 |
| O=C(COc1ccc(OC(F)(F)F)cc1)NCc1nc(C(=O)NCc2cccc(C(F)(F)F)c2F)cs1 [Entry 158, N-{[2-fluoro-3-(trifluoromethyl)phenyl]methyl}-2-({[({4-[(trifluoromethyl)oxy]phenyl}oxy)acetyl]amino}methyl)-1,3-thiazole-4-carboxamide] | 0.05 to 0.5 |
| O=C(COc1ccc(OC(F)(F)F)cc1)NCc1nc(C(=O)NCCc2cccs2)co1 [Entry 159, N-[2-(2-thienyl)ethyl]-2-({[({4-[(trifluoromethyl)oxy]phenyl}oxy)acetyl]amino}methyl)-1,3-oxazole-4-carboxamide] | 0.05 to 0.5 |
| O=C(COc1ccc(OC(F)(F)F)cc1)NCc1nc(C(=O)NCCc2ccc(Cl)cc2Cl)cs1 [Entry 160, N-[2-(2,4-dichlorophenyl)ethyl]-2-({[({4-[(trifluoromethyl)oxy]phenyl}oxy)acetyl]amino}methyl)-1,3-thiazole-4-carboxamide] | 0.05 to 0.5 |

Other lines, results leading:

| IC50 [µM] | Structure (SMILES) |
| --- | --- |
| 0.05 to 0.5 | O=C(COc1cccc(Cl)c1)NCc1nc(C(=O)NCCc2cccc(Cl)c2)cs1 [Entry 161, N-[2-(3-chlorophenyl)ethyl]-2-[({[(3-chlorophenyl)oxy]acetyl}amino)methyl]-1,3-thiazole-4-carboxamide] |
| 0.05 to 0.5 | Cc1ccc([C@H](C)NC(=O)c2csc(CNC(=O)COc3ccc(OC(F)(F)F)cc3)n2)cc1 [Entry 162, N-[(1S)-1-(4-methylphenyl)ethyl]-2-({[({4-[(trifluoromethyl)oxy]phenyl}oxy)acetyl]amino}methyl)-1,3-thiazole-4-carboxamide] |
| 0.05 to 0.5 | O=C(COc1ccc(OC(F)(F)F)cc1)NCc1nc(C(=O)NCc2c(Cl)cccc2Oc2ccccc2)cs1 [Entry 163, N-{[2-chloro-6-(phenyloxy)phenyl]methyl}-2-({[({4-[(trifluoromethyl)oxy]phenyl}oxy)acetyl]amino}methyl)-1,3-thiazole-4-carboxamide] |
| 0.05 to 0.5 | O=C(COc1ccc(OC(F)(F)F)cc1)NCc1nc(C(=O)NCc2cccs2)cs1 [Entry 164, N-(2-thienylmethyl)-2-({[({4-[(trifluoromethyl)oxy]phenyl}oxy)acetyl]amino}methyl)-1,3-thiazole-4-carboxamide] |
| 0.05 to 0.5 | O=C(COc1ccc(OC(F)(F)F)cc1)NCc1nc(C(=O)N[C@@H]2CCCc3ccccc32)cs1 [Entry 165, N-[(1R)-1,2,3,4-tetrahydronaphthalen-1-yl]-2-({[({4-[(trifluoromethyl)oxy]phenyl}oxy)acetyl]amino}methyl)-1,3-thiazole-4-carboxamide] |
| 0.05 to 0.5 | Cc1cc(Cl)cc(Cl)c1CNC(=O)c1csc(CNC(=O)COc2ccc(OC(F)(F)F)cc2)n1 [Entry 166, N-[(2,4-dichloro-6-methylphenyl)methyl]-2-({[({4-[(trifluoromethyl)oxy]phenyl}oxy)acetyl]amino}methyl)-1,3-thiazole-4-carboxamide] |
| 0.05 to 0.5 | O=C(COc1ccc(OC(F)(F)F)cc1)NCc1nc(C(=O)NC(c2ccccc2)c2ccccc2)cs1 [Entry 167, N-(diphenylmethyl)-2-({[({4-[(trifluoromethyl)oxy]phenyl}oxy)acetyl]amino}methyl)-1,3-thiazole-4-carboxamide] |
